In brackets after ≈: the same amount, converted by molar mass. Counter-ions that a name gives are not always drawn.

What all share (type): cell-based
Experiment [1] deals with Fusarium solani. The experiment can be described thus: MIC by micro-liquid dilution method (Alamar Blue assay), Fusarium solani. Further details: unit not given here. The following applies: 10 clinical strains; 35° C., 72 hours; MIC = minimum concentration with IC not less than 80%. On the procedure: (§1) The MICs of each type of antifungal agent against Fusarium oxysporum and Fusarium solani were determined. That is, each fungus was cultured at 35° C. for 72 hours using, as a medium, “RPMI 1640/MOPS liquid medium supplemented with 10% Alamar Blue (registered trademark) (pH 7.0)” (see Shinobu Ishigaki et al., The Journal of the Japanese Association for Infectious Diseases, vol. 74(3) (2000) pp. 221-230) according to the micro-liquid dilution method (Alamar Blue assay), which is in accordance with the CLSI standardization and the Japanese Society for Medical Mycology method. Thereafter, O.D. was measured for investigating color change of the oxidation-reduction indicator Alamar Blue, to determine the minimum inhibitory concentration (MIC). That is, the growth inhibition rate (IC) was determined based on the O.D. value, and the minimum concentration of the agent at which an IC of not less than 80% was achieved was determined as MIC. Two strains of Fusarium oxysporum (clinically separated strains; Teikyo University Institute of Medical Mycology), and 10 strains of Fusarium solani (clinically separated strains; Institute of Dermatology (Thailand) and Teikyo University Institute of Medical Mycology) were used.
In general terms: Resazurin is reduced to fluorescent resorufin, in cell work by metabolically active cells.

Experiment [2] has as its system Fusarium oxysporum. The experiment can be described thus: MIC by micro-liquid dilution method (Alamar Blue assay), Fusarium oxysporum. More on the design: unit not given here. The following applies: 2 clinical strains; 35° C., 72 hours; MIC = minimum concentration with IC not less than 80%. On the procedure:
as §1

Experiment [3] relates to Trichomonas vaginalis. The experiment can be described thus: Growth inhibition of Trichomonas vaginalis in Trichomonas Medium F (neutral red colour, microscopy). As to conditions: for MIC: clinically isolated Trichomonas vaginalis, read-out: minimum inhibitory concentration (MIC); for MIC / Color / Result of observation under the microscope: 72 hours; for Color: 37° C.; for Result of observation under the microscope: inverted microscope. On the procedure:
Among the compounds represented by General Formula (1), luliconazole was selected for investigation of the effect on Trichomonas vaginalis. That is, 5×10^6 cells of clinically isolated Trichomonas vaginalis were seeded in Trichomonas Medium F, manufactured by Fuji Pharma Industrial Co., Ltd., which contains neutral red as a marker (6.5 mL, contained in a tube). Preculture was performed for 72 hours (preculture). After confirming that the Trichomonas has grown to actively produce acid and to thereby cause changing of the color of neutral red to yellow, 100 μL of the obtained preculture liquid was added to Trichomonas Medium F to be used for main culture. To resulting mixture, 0.5 mL of each test liquid was further added. The number of Trichomonas cells in the preculture liquid at this time was 1.5×10^5 cells/mL. Three types of test liquids, that is, solutions of luliconazole in 10% methanol/saline solution at luliconazole concentrations of 200 μM (final concentration, 35.2 μM), 100 μM (final concentration, 17.6 μM) and 50 μM (final concentration, 8.8 μM), were provided. A control was prepared by adding 0.5 mL of a vehicle as a test liquid. As the vehicle, 10% methanol/saline solution (final concentration, 0 μM) was used. After the addition, each resulting mixture was stirred well, and culture was carried out at 37° C. for 72 hours. Thereafter, the color was judged, and the condition of Trichomonas cells was observed under an inverted microscope.
The same study as in Example 1 was carried out except that lanoconazole was used instead of luliconazole.

Experiment [4] has as its system Chlamydia trachomatis (D/UW3/Cx). Nature of the experiment: Anti-intracellular parasite action: Chlamydia trachomatis cultured in HeLa 229 cells, fluorescent staining of inclusion bodies. As to the method:
FIG. 1 is a diagram (photographs) illustrating the results of observation of chlamydial inclusion bodies after luliconazole treatment, which observation was carried out by fluorescent staining using a Chlamydia FA reagent “Seiken”.
Using Chlamydia trachomatis (D/UW3/Cx), the anti-intracellular parasite action was examined. That is, Chlamydia trachomatis was cultured using HeLa 229 cells as a host in the presence of a 2-fold dilution series of 8 to 64 μg/mL luliconazole. The culture was carried out using, as a medium, MEM supplemented with 1 μg/mL cyclohexamide and 8% heat-inactivated FBS, at 37° C. under 5% carbon dioxide for 72 hours. Thereafter, inclusion bodies were fluorescently stained in apple green using a Chlamydia FA reagent “Seiken” (manufactured by Denka Seiken Co., Ltd.), and observed under a fluorescence microscope.

Setting [5] is: final concentration 8.8 μM, neutral red marker.
[6] abbreviates: final concentration 17.6 μM, neutral red marker.
[7] abbreviates: final concentration 35.2 μM, neutral red marker (yellow = acid production by growing Trichomonas).

Consider `C[C@@H]1[C@H](O)[C@@H](C)/C=C/C=C/C=C/C=C/C=C/C=C/C=C/[C@H](O[C@@H]2O[C@H](C)[C@@H](O)[C@H](N)[C@@H]2O)C[C@@H]2O[C@](O)(C[C@@H](O)C[C@@H](O)[C@H](O)CC[C@@H](O)C[C@@H](O)CC(=O)O[C@H]1C)C[C@H](O)[C@H]2C(=O)O` [AMB, Amphotericin B], for which the “MIC, F. solani (10), lower line of each agent (range)” value (“MIC, F. solani (10), lower line” for short) in experiment [1] is on record as 2-4.

Take `CCC(C)(C)c1ccc(CC(C)CN2C[C@@H](C)O[C@@H](C)C2)cc1` (stereo partly drawn) [AMO, Amorolfine hydrochloride]: the “MIC, F. solani (10), lower line” value in experiment [1] is on record as over 4. Moreover, the “MIC, F. oxysporum (2), lower line of each agent (range)” value (“MIC, F. oxysporum (2), lower line” for short) in experiment [2] is listed as over 4.

Take `c1ccc(-c2ccc(C(c3ccccc3)n3ccnc3)cc2)cc1` (stereo not drawn) [BFZ, Bifonazole]: the “MIC, F. solani (10), lower line” value in experiment [1] is reported as over 4. The “MIC, F. oxysporum (2), lower line” value in experiment [2] was over 4.

For `Clc1ccccc1C(c1ccccc1)(c1ccccc1)n1ccnc1` [CTZ, Clotrimazole], the “MIC, F. solani (10), lower line” value in experiment [1] was over 4. Further, in experiment [2], the “MIC, F. oxysporum (2), lower line” value is over 4.

On to `C=C1CCN([C@H](C)[C@](O)(Cn2cncn2)c2ccc(F)cc2F)CC1` [EFCZ, Efinaconazole], for which the “MIC, F. oxysporum (2), lower line” value in experiment [2] is listed as 0.25-1.

For `OC(Cn1cncn1)(Cn1cncn1)c1ccc(F)cc1F` [FCZ, Fluconazole], in experiment [1], the “MIC, F. solani (10), lower line” value is on record as over 4. Moreover, the “MIC, F. oxysporum (2), lower line” value in experiment [2] is over 4.

Consider `CCC(C)n1ncn(-c2ccc(N3CCN(c4ccc(OCC5COC(Cn6cncn6)(c6ccc(Cl)cc6Cl)O5)cc4)CC3)cc2)c1=O` (stereo not drawn) [ITZ, Itraconazole], for which the “MIC, F. solani (10), lower line” value in experiment [1] is reported as over 4. In experiment [2], the “MIC, F. oxysporum (2), lower line” value is over 4.

For `CC(=O)N1CCN(c2ccc(OCC3COC(Cn4ccnc4)(c4ccc(Cl)cc4Cl)O3)cc2)CC1` (stereo not drawn) [KCZ, Ketoconazole], the “MIC, F. oxysporum (2), lower line” value in experiment [2] is recorded as over 4.

Turning to `Clc1ccc(COC(Cn2ccnc2)c2ccc(Cl)cc2Cl)c(Cl)c1` (stereo not drawn) [MCZ, Miconazole nitrate], in experiment [2], the “MIC, F. oxysporum (2), lower line” value is recorded as over 4.

In the case of `C[C@@H](c1ncncc1F)[C@](O)(Cn1cncn1)c1ccc(F)cc1F` [VCZ, Voriconazole], in experiment [2], the “MIC, F. oxysporum (2), lower line” value is on record as over 4.

For `N#C/C(=C1/SCC(c2ccccc2Cl)S1)n1ccnc1` (stereo not drawn) [lanoconazole, 4-(2-chlorophenyl)-1,3-dithiolan-2-ylidene-1-imidazolylacetonitrile], the MIC in experiment [3] was about 17.6 µM (≈ 5.63 µg/mL). Further, the figures for the Color entry in experiment [3] (setting [5]), in experiment [3] (setting [6]) and in experiment [3] (setting [7]) were “Yellow”, “Red” and “Red”, respectively. In addition, in experiment [3] (final concentration 35.2 μM), the “Result of observation under the microscope” value is reported as “No Trichomonas cell was found”. Besides, the “growth of Trichomonas” value in experiment [3] (same study as Example 1, no concentration stated) is “inhibit the growth of Trichomonas”. Further, the “MIC, F. solani (10), lower line” value in experiment [1] is on record as 0.063-0.25. Moreover, the “MIC, F. oxysporum (2), lower line” value in experiment [2] was 0.063-0.13.

As to `N#C/C(=C1/SC[C@@H](c2ccc(Cl)cc2Cl)S1)n1ccnc1` [luliconazole, (R)-(−)-(E)-[4-(2,4-dichlorophenyl)-1,3-dithiolan-2-ylidene]-1-imidazolylacetonitrile], the “growth of Trichomonas” value in experiment [3] (8.8 μM) is “inhibited the growth of Trichomonas”. Also, the MIC in experiment [3] is about 8.8 µM (≈ 3.12 µg/mL); in experiment [4] (Chlamydia trachomatis, HeLa 229 host cells, 72 hours, 2-fold dilution series 8 to 64 μg/mL, read-out: MIC against Chlamydia trachomatis), 32 µg/mL (≈ 90.3 µM). Further, the Color entry in experiment [3] (setting [5]) is on record as “Yellow”; in experiment [3] (setting [6]) it was “Red”; in experiment [3] (setting [7]) it was “Red”. Moreover, the “Result of observation under the microscope” value in experiment [3] (final concentration 17.6 μM) and in experiment [3] (final concentration 35.2 μM) was “No Trichomonas cell was found” each time. Further, the “observation of chlamydial inclusion bodies” value in experiment [4] (8 μg/mL, FIG. 1 panel (A)) is “chlamydial inclusion bodies were found”; in experiment [4] (16 μg/mL, FIG. 1 panel (B)), “chlamydial inclusion bodies were found”; in experiment [4] (32 μg/mL, FIG. 1 panel (C)) it was “no inclusion body was found”. Moreover, the “MIC, F. solani (10), lower line” value in experiment [1] is 0.016-0.063. The “MIC, F. oxysporum (2), lower line” value in experiment [2] is reported as 0.016-0.031.

These data come from patent US20160279101A1, “PHARMACEUTICAL COMPOSITION FOR TREATMENT OF PNEUMONIA ASSOCIATED WITH FUSARIUM FUNGUS” (priority 2013, published 2016).
